Measured values reported in patent US20250011331A1 (Nimbus Saturn, Inc., priority 2021, published 2025).

Each compound was assayed against T1, HPK1 (Homo sapiens, UniProt Q92918) (assay: HPK1 biochemical enzyme assay (microfluidic mobility shift)). Conditions: 1.5 nM HPK1 (Invitrogen), 1 mM ATP, 30 min preincubation, 60 min at RT, Caliper EZ Reader.
T1 construct: purchased Invitrogen
Procedure: HPK1 biochemical enzyme assay: HPK1 enzyme inhibition was measured using a microfluidic mobility shift assay. Reactions were performed in a 384-well plate, containing 1.5 nM HPK1 (Invitrogen), in assay buffer (Cama Biosciences; pH 7.4). Test compounds were titrated in ten point curves (top final assay concentration 3 μM), and preincubated with enzyme/substrate mix for 30 min prior to initiation of the reaction by addition of ATP (1 mM final concentration) and substrate (1 μM final concentration; Carna Biosciences) diluted in assay buffer supplemented by MgCl2 (final assay concentration of 5 mM). Following 60 min incubation at RT, the reaction was terminated by addition of 60 μl/well termination buffer (Carna Biosciences) and signal determination using a Caliper EZ Reader (Perkin Elmer, UK).

T1 sequence (Q92918 whole entry): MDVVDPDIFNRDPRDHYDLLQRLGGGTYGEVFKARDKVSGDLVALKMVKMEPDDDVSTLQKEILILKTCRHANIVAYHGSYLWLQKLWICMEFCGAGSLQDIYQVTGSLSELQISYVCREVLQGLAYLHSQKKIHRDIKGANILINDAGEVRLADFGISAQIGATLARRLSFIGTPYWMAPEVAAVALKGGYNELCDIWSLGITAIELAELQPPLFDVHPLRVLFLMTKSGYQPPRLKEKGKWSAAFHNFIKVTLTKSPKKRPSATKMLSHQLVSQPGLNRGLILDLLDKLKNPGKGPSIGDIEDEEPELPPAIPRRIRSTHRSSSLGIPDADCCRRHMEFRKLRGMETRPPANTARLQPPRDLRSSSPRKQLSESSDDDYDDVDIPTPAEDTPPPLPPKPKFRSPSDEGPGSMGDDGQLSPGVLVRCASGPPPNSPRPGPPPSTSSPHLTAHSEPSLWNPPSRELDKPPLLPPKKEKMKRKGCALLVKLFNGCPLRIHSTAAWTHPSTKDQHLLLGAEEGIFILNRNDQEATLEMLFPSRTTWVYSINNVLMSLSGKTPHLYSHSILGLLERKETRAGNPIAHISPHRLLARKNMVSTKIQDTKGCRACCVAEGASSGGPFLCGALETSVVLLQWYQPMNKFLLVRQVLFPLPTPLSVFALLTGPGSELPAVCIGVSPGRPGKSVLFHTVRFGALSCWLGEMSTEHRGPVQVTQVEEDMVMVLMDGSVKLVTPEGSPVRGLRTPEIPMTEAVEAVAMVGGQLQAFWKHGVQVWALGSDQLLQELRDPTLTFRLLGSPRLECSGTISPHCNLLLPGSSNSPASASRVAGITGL

`CN1CCN(C(=O)[C@@H]2CCOC2)c2ccc(Nc3ccc(-c4cnc5cc(F)ccn45)c4c3C(=O)NC4)nc2C1` (single isomer, unassigned) [Compound I-17] and `CN1CCCC1c1nc(Nc2ccc(-c3cnc4cc(F)ccn34)c3c2C(=O)NC3)ccc1C1CCOC1` (centres unmarked) [Compound I-16] fall in the same range of IC50: 100 to 1000 nM for the first, 100 to 1000 nM for the second.

`CN(C)Cc1nc(Nc2ccc(-c3cnc4cc(F)ccn34)c3c2C(=O)NC3)ccc1[C@H]1COCCO1` (single isomer, unassigned) [Compound I-14] and `C[C@H](OC[C@H]1COCCO1)c1ccc(Nc2ccc(-c3cnc4cc(F)ccn34)c3c2C(=O)NC3)nc1CN(C)C` (single isomer, unassigned) [Compound I-33] cannot be ordered by IC50: at most 100 nM for the first, at most 100 nM for the second.

`C[C@@H](OC1CCOCC1)c1ccc(Nc2ccc(-c3cnc4cc(F)ccn34)c3c2C(=O)NC3)nc1CN(C)C` (single isomer, unassigned) [Compound I-24] and `C[C@@H](OC[C@H]1COCCO1)c1ccc(Nc2ccc(-c3cnc4cc(F)ccn34)c3c2C(=O)NC3)nc1CN(C)C` (single isomer, unassigned) [Compound I-34] cannot be ordered by IC50: at most 100 nM for the first, at most 100 nM for the second.

`CCN1CCC(c2ccc(Nc3ccc(-c4cnc5cc(F)ccn45)c4c3C(=O)NC4)nc2CN(C)C)CC1=O` (centres unmarked) [Compound I-48, 7-[[6-[(dimethylamino)methyl]-5-(1-ethyl-2-oxo-4-piperidyl)-2-pyridyl]amino]-4-(7-fluoroimidazo[1,2-a]pyridin-3-yl)isoindolin-1-one] and `CN(C)Cc1nc(Nc2ccc(-c3cnc4cc(F)ccn34)c3c2C(=O)NC3)ccc1[C@H]1CC[C@@H](O)C1` [Compound I-1, 7-((6-((dimethylamino)methyl)-5-((1S,3R)-3-hydroxycyclopentyl)pyridin-2-yl)amino)-4-(7-fluoroimidazo[1,2-a]pyridin-3-yl)isoindolin-1-one] cannot be ordered by IC50: at most 100 nM for the first, at most 100 nM for the second.

`C[C@@H](c1ccc(Nc2ccc(-c3cnc4cnccn34)c3c2C(=O)NC3)nc1CN(C)C)C1CCOCC1` [Compound I-36] and `CC(c1ccc(Nc2ccc(-c3cnc4cnccn34)c3c2C(=O)NC3)nc1CN(C)C)C1CCOCC1` (centres unmarked) [Compound I-35] cannot be ordered by IC50: at most 100 nM for the first, at most 100 nM for the second.

`C[C@@H](c1nc(Nc2ccc(-c3cnc4cc(F)ccn34)c3c2C(=O)NC3)ccc1C1CCOCC1)N(C)C` [Compound I-8, (S)-7-((6-(1-(dimethylamino)ethyl)-5-(tetrahydro-2H-pyran-4-yl)pyridin-2-yl)amino)-4-(7-fluoroimidazo[1,2-a]pyridin-3-yl)isoindolin-1-one] and `C[C@H](c1nc(Nc2ccc(-c3cnc4cc(F)ccn34)c3c2C(=O)NC3)ccc1C1CCOCC1)N(C)C` [Compound I-7, (R)-7-((6-(1-(dimethylamino)ethyl)-5-(tetrahydro-2H-pyran-4-yl)pyridin-2-yl)amino)-4-(7-fluoroimidazo[1,2-a]pyridin-3-yl)isoindolin-1-one] cannot be ordered by IC50: at most 100 nM for the first, 100 to 1000 nM for the second.

`CO[C@H]1CCN(Cc2nc(Nc3ccc(-c4cnc5cc(F)ccn45)c4c3C(=O)NC4)ccc2C2CCN(C)C(=O)C2)C1` (stereo partly drawn) [Compound I-44, 4-(7-fluoroimidazo[1,2-a]pyridin-3-yl)-7-[[6-[[(3S)-3-methoxypyrrolidin-1-yl]methyl]-5-(1-methyl-2-oxo-4-piperidyl)-2-pyridyl]amino]isoindolin-1-one] and `CN(C)Cc1nc(Nc2ccc(-c3cnc4cc(F)ccn34)c3c2C(=O)NC3)ccc1[C@H]1CC[C@H](O)C1` [Compound I-3, 7-((6-((dimethylamino)methyl)-5-((1S,3S)-3-hydroxycyclopentyl)pyridin-2-yl)amino)-4-(7-fluoroimidazo[1,2-a]pyridin-3-yl)isoindolin-1-one] cannot be ordered by IC50: at most 100 nM for the first, at most 100 nM for the second.

`CN(C)Cc1nc(Nc2ccc(-c3cnc4cc(F)ccn34)c3c2C(=O)NC3)ccc1[C@]1(C)CCCO1` (single isomer, unassigned) [Compound I-6] and `CN(C)Cc1nc(Nc2ccc(-c3cnc4cc(F)ccn34)c3c2C(=O)NC3)ccc1[C@@]1(C)CCCO1` (single isomer, unassigned) [Compound I-5] cannot be ordered by IC50: at most 100 nM for the first, at most 100 nM for the second.

`CC(Oc1ccc(Nc2ccc(-c3cnc4cnccn34)c3c2C(=O)NC3)nc1CN(C)C)C1CC(F)(F)C1` (centres unmarked) [Compound I-49, 7-[[5-[1-(3,3-difluorocyclobutyl)ethoxy]-6-[(dimethylamino)methyl]-2-pyridyl]amino]-4-imidazo[1,2-a]pyrazin-3-yl-isoindolin-1-one] and `C[C@H](OC1CCC1)c1ccc(Nc2ccc(-c3cnc4cnccn34)c3c2C(=O)NC3)nc1CN(C)C` [Compound I-30] cannot be ordered by IC50: at most 100 nM for the first, at most 100 nM for the second.

`C[C@H](O)c1ccc(Nc2ccc(-c3cnc4cc(F)ccn34)c3c2C(=O)NC3)nc1CN(C)C` [Compound I-10, (S)-7-((6-((dimethylamino)methyl)-5-(1-hydroxyethyl)pyridin-2-yl)amino)-4-(7-fluoroimidazo[1,2-a]pyridin-3-yl)isoindolin-1-one] and `CO[C@H]1C[C@H](Oc2ccc(Nc3ccc(-c4cnc5cc(F)ccn45)c4c3C(=O)NC4)nc2CN(C)C)C1` [Compound I-19] cannot be ordered by IC50: at most 100 nM for the first, at most 100 nM for the second.

`Cc1cncc2ncc(-c3ccc(Nc4ccc([C@@H]5CCOC5)c(CN(C)C)n4)c4c3CNC4=O)n12` (single isomer, unassigned) [Compound I-27] and `Cc1cncc2ncc(-c3ccc(Nc4ccc([C@H]5CCOC5)c(CN(C)C)n4)c4c3CNC4=O)n12` (single isomer, unassigned) [Compound I-28] cannot be ordered by IC50: at most 100 nM for the first, at most 100 nM for the second.

`CN(C)Cc1nc(Nc2ccc(-c3cnc4cc(F)ccn34)c3c2C(=O)NC3)ccc1C1(C)CCOCC1` [Compound I-4, 7-((6-((dimethylamino)methyl)-5-(4-methyltetrahydro-2H-pyran-4-yl)pyridin-2-yl)amino)-4-(7-fluoroimidazo[1,2-a]pyridin-3-yl)isoindolin-1-one] and `CO[C@@]1(c2ccc(Nc3ccc(-c4cnc5cc(F)ccn45)c4c3C(=O)NC4)nc2CN(C)C)CCOC1` (single isomer, unassigned) [Compound I-20] cannot be ordered by IC50: at most 100 nM for the first, at most 100 nM for the second.

`C[C@H](c1ccc(Nc2ccc(-c3cnc4cnccn34)c3c2C(=O)NC3)nc1CN(C)C)C1CCOCC1` [Compound I-37] and `C[C@@H](OC1CCC1)c1ccc(Nc2ccc(-c3cnc4cnccn34)c3c2C(=O)NC3)nc1CN(C)C` [Compound I-29] cannot be ordered by IC50: at most 100 nM for the first, at most 100 nM for the second.

Going from `CO[C@H]1CCN(Cc2nc(Nc3ccc(-c4cnc5cc(F)ccn45)c4c3C(=O)NC4)ccc2C2CCN(C)C(=O)C2)C1` (stereo partly drawn) [Compound I-43, 4-(7-fluoroimidazo[1,2-a]pyridin-3-yl)-7-[[6-[[(3S)-3-methoxypyrrolidin-1-yl]methyl]-5-(1-methyl-2-oxo-4-piperidyl)-2-pyridyl]amino]isoindolin-1-one] to `COC1CN(Cc2nc(Nc3ccc(-c4cnc5cnccn45)c4c3C(=O)NC4)ccc2C2CCOC2)C1` (centres unmarked) [Compound I-41, 4-imidazo[1,2-a]pyrazin-3-yl-7-[[6-[(3-methoxyazetidin-1-yl)methyl]-5-tetrahydrofuran-3-yl-2-pyridyl]amino]isoindolin-1-one], the IC50 rises from at most 100 nM to over 1000 nM. The first is the more potent here.

`CN(C)CCc1nc(Nc2cnc(-c3ccnc4c3ccn4C)c3c2C(=O)NC3)ccc1C1CCOCC1` [Compound I-13, 7-((6-(2-(dimethylamino)ethyl)-5-(tetrahydro-2H-pyran-4-yl)pyridin-2-yl)amino)-4-(1-methyl-1H-pyrrolo[2,3-b]pyridin-4-yl)-2,3-dihydro-1H-pyrrolo[3,4-c]pyridin-1-one] and `CN(C)Cc1nc(Nc2ccc(-c3cnc4cc(C#N)ccn34)c3c2C(=O)NC3)ccc1C1CCOC1` (single isomer, unassigned) [Compound I-38, 3-(7-((6-((dimethylamino)methyl)-5-(tetrahydrofuran-3-yl)pyridin-2-yl)amino)-1-oxoisoindolin-4-yl)imidazo[1,2-a]pyridine-7-carbonitrile] cannot be ordered by IC50: at most 100 nM for the first, at most 100 nM for the second.

`CN(C)Cc1cc(C2CCOC2)cc(Nc2ccc(-c3cnc4cc(F)ccn34)c3c2C(=O)NC3)n1` (single isomer, unassigned) [Compound I-45] and `CO[C@]1(c2ccc(Nc3ccc(-c4cnc5cc(F)ccn45)c4c3C(=O)NC4)nc2CN(C)C)CCOC1` (single isomer, unassigned) [Compound I-21] cannot be ordered by IC50: at most 100 nM for the first, at most 100 nM for the second.

Going from `CN(C)Cc1cc(C2CCOC2)cc(Nc2ccc(-c3cnc4cc(F)ccn34)c3c2C(=O)NC3)n1` (centres unmarked) [Compound I-46] to `COCC1CC(c2ccc(Nc3ccc(-c4cnc5cc(F)ccn45)c4c3C(=O)NC4)nc2CN(C)C)CCO1` (centres unmarked) [Compound I-32], the IC50 falls from over 1000 nM to at most 100 nM. The second is the more potent here.

`CN(C)Cc1nc(Nc2ccc(-c3cnc4cc(F)ccn34)c3c2C(=O)NC3)ccc1OC1CC2(COC2)C1` [Compound I-40, 7-((5-((2-oxaspiro[3.3]heptan-6-yl)oxy)-6-((dimethylamino)methyl)pyridin-2-yl)amino)-4-(7-fluoroimidazo[1,2-a]pyridin-3-yl)isoindolin-1-one] and `CN(C)Cc1nc(Nc2ccc(-c3cnc4cc(F)ccn34)c3c2C(=O)NC3)ccc1N1CCOC(C)(C)C1=O` [Compound I-23] cannot be ordered by IC50: at most 100 nM for the first, at most 100 nM for the second.

`CN1CC[C@H](c2ccc(Nc3ccc(-c4cnc5cc(F)ccn45)c4c3C(=O)NC4)nc2)C1=O` [Compound I-53, (R)-4-(7-fluoroimidazo[1,2-a]pyridin-3-yl)-7-((5-(1-methyl-2-oxopyrrolidin-3-yl)pyridin-2-yl)amino)isoindolin-1-one] and `COC1CN(Cc2nc(Nc3ccc(-c4cnc5cnccn45)c4c3C(=O)NC4)ccc2C2CCOC2)C1` (centres unmarked) [Compound I-42, 4-imidazo[1,2-a]pyrazin-3-yl-7-[[6-[(3-methoxyazetidin-1-yl)methyl]-5-tetrahydrofuran-3-yl-2-pyridyl]amino]isoindolin-1-one] cannot be ordered by IC50: at most 100 nM for the first, at most 100 nM for the second.
